Experimental findings from ChEMBL document CHEMBL1155191, “Simple dihydrosphyngosine analogues with potent activity against MDR-Mycobacterium tuberculosis” (2009) are described below.

Format in all cases: functional
Test [1] deals with Mycobacterium tuberculosis. Kind of test: Antimycobacterial activity against multidrug-resistant Mycobacterium tuberculosis 535 after 5 to 7 days by microplate alamar blue assay. Background: Alamar Blue is a resazurin reagent that responds to reducing activity.
For test [2], the system named is Mycobacterium tuberculosis. Kind of test: Antimycobacterial activity against multidrug-resistant, streptomycin-sensitive Mycobacterium tuberculosis 429 after 5 to 7 days by microplate alamar blue assay.
Test [3] concerns Mycobacterium tuberculosis. Kind of test: Antimycobacterial activity against multidrug-resistant Mycobacterium tuberculosis 528 after 5 to 7 days by microplate alamar blue assay.
The subject of test [4] is Mycobacterium tuberculosis. The test is described as follows: Antimycobacterial activity against multidrug-resistant Mycobacterium tuberculosis 160 after 5 to 7 days by microplate alamar blue assay.
Test [5] has as its system Mycobacterium tuberculosis. Kind of test: Antimycobacterial activity against multidrug-resistant Mycobacterium tuberculosis 411 after 5 to 7 days by microplate alamar blue assay.
Test [6] concerns Mycobacterium tuberculosis. Kind of test: Antimycobacterial activity against multidrug-resistant Mycobacterium tuberculosis 331 after 5 to 7 days by microplate alamar blue assay.
Test [7] deals with Mycobacterium tuberculosis. Kind of test: Antimycobacterial activity against multidrug-resistant Mycobacterium tuberculosis 332 after 5 to 7 days by microplate alamar blue assay.
Test [8] concerns Mycobacterium tuberculosis. The test is described as follows: Antimycobacterial activity against multidrug-resistant, ethambutol-sensitive Mycobacterium tuberculosis 494 after 5 to 7 days by microplate alamar blue assay.
Test [9] relates to Mycobacterium tuberculosis. The test is described as follows: Antimycobacterial activity against streptomycin, rifampicin, pyrazinamide-sensitive isoniazid, ethambutol-resistant Mycobacterium tuberculosis 363 after 5 to 7 days by microplate alamar blue assay.
Test [10] relates to Mycobacterium tuberculosis. The test is described as follows: Antimycobacterial activity against multidrug-resistant, ethambutol-sensitive Mycobacterium tuberculosis 401 after 5 to 7 days by microplate alamar blue assay.
In test [11] the test system is Mycobacterium tuberculosis. The test is described as follows: Antimycobacterial activity against multidrug-resistant, pyrazinamide-sensitive Mycobacterium tuberculosis 366 after 5 to 7 days by microplate alamar blue assay.

In brackets after ≈: the same amount, converted by molar mass.

`CCCCCCCCCCCCCCC(N)COCc1ccccc1` (stereo not drawn): the MIC (in general, the smallest concentration in the dilution series that meets the test's criterion for growth inhibition) in test [1] worked out at 18 µM (≈ 6.26 µg/mL); in [2], 9 µM (≈ 3.13 µg/mL); in [3], 18 µM (≈ 6.26 µg/mL); in [4], 9 µM (≈ 3.13 µg/mL); in test [5] it was 4.5 µM (≈ 1.56 µg/mL); in [6] it was 9 µM (≈ 3.13 µg/mL). Also, the MIC in test [7] came to 36 µM (≈ 12.5 µg/mL); in test [8] it was 9 µM (≈ 3.13 µg/mL); in [9] it was 18 µM (≈ 6.26 µg/mL); in test [10] it was 4.5 µM (≈ 1.56 µg/mL); in test [11], 4.5 µM (≈ 1.56 µg/mL).
`CCCCCCCCCCCCCCC(N)CN(CC)CC` (stereo not drawn): the MIC in test [1], in test [2], in [3], in test [4], in test [5] and in test [6] was 40 µM (≈ 12.5 µg/mL) each time. In addition, the minimal inhibitory concentration (MIC) was determined as 40 µM (≈ 12.5 µg/mL) in test [7]; 40 µM (≈ 12.5 µg/mL) in test [8]; 40 µM (≈ 12.5 µg/mL) in test [9]; 40 µM (≈ 12.5 µg/mL) in test [10]; 20 µM (≈ 6.25 µg/mL) in test [11].
For the molecule `CCCCCCCCCCCCCCC(COCc1ccccc1)N(CC)CC` (stereo not drawn), the MIC in [1] was 3.9 µM (≈ 1.57 µg/mL); in [2], 7.7 µM (≈ 3.11 µg/mL); in test [3], 15.5 µM (≈ 6.26 µg/mL); in [4], 7.7 µM (≈ 3.11 µg/mL); in test [5], 7.7 µM (≈ 3.11 µg/mL); in test [6], 15.5 µM (≈ 6.26 µg/mL). The MIC in test [7] came to 1.9 µM (≈ 0.767 µg/mL); in test [8] it was 7.7 µM (≈ 3.11 µg/mL); in [9], 3.9 µM (≈ 1.57 µg/mL); in test [10], 7.7 µM (≈ 3.11 µg/mL); in [11], 3.9 µM (≈ 1.57 µg/mL).
